Measurements as given in paper PMC9234961 (Journal of Medicinal Chemistry, 2022).
Converted amounts (≈) assume the structure as drawn. “And” between values parts separate entries of the source, which are not always exact repeats. Equal entries are not always repeated. Where two headings read alike, the source gives them in different places.

What was measured:
[1] = logD7.4 assay (Chrom log D method); assay type: physicochemical; details: reversed-phase HPLC on Phenomenex Luna C8 column, pH 7.4, read-out: Measured logD7.4
Procedure: Calibration, validation and in-house compounds were prepared at 1mM in 10% DMSO / 90% Trizma solution (100mM Trizma in 75/25 methanol/water). 3 µL standard injections (with needle wash) of all calibration, validation and in-house samples were made onto a Phenomenex Luna C8 column (3µm, 100 x 4.6 mm, 100A, Phenomenex, Torrence, USA). Chromatographic separation at 30°C was carried out using […]
2 mL/min. The gradient was held at 0:100 water:organic for 0.8 minutes, then returned to the starting conditions of 95:5 water:organic for 0.2 minutes. The column was re-equilibrated for 5 minutes at the […]

NMR solubility assay = assay type: physicochemical; details: kinetic solubility by NMR in HEPES buffer at pH 8, 4% DMSO; read-out: Aq. Sol.
Procedure: 4. Supplementary experimental: physicochemical assays
0.5 mM TCEP, 10% D2O) was pipetted into the same well and mixed by up-down pipetting 3 times to create […]
It was then separated by centrifugation (1000 rpm
The plate was then sealed and incubated at room temperature for 20 hours, […]
165 µL of the supernatant was transferred to a 3 mm NMR tube (Bruker, Part No. Z112272) using liquid handler SamplePro Tube SJ S (Bruker). The concentration of the solubilized compound in solubility sample is measured by quantitative 1H-NMR using a single external standard (200 µM caffeine (Sigma, C1778) in PBS (pH 7.4) with 1% DMSO-d6).
The detail of the NMR method is as following: NMR data was collected on a Bruker Avance Neo 600 spectrometer equipped with a 5 mm TCI-CryoProbe. The 1H spectrum was referenced to the internal deuterated solvent. The operating frequency for 1H was 600 MHz. All NMR data were acquired at the […]
1H-NMR spectrum was acquired using a Bruker standard 1D lc1pngppsf2 pulse sequence with 32 scans.
The sweep width was 6.2 ppm with O1P set to 8.8 ppm, and the FID contained 16k time-domain data points. Relaxation delay was set to 20 sec. Water signal was suppressed. […]

[2] = target: endogenous BCL6 in OCI-Ly1 cells (Homo sapiens, UniProt P41182); assay: cell-based; details: for degradation of BCL6 (in words): OCI-Ly1 MSD assay; for MSD degrader assay [OCI-Ly1] Dmax: mean maximal degradation of BCL6
[3] = Microsomal clearance assay (MLM); assay type: in vitro ADME; details: female, CD1, pH 7.4; mouse liver microsomes, 1 μM compound
Procedure: 6. Supplementary experimental: in vitro DMPK assays
6.1 Microsomal clearance assay
Microsomal clearance was determined in female CD1 mice, female Sprague–Dawley rats, and mixed gender human liver microsomes obtained from BioIVT (Peterborough, U.K.) following incubation of 1 μM compound at 37 °C in 0.5 mg/mL microsomal protein, 3 mmol/L MgCl2, 1 mmol/L NADPH, 2.5 mmol/L and 10 mmol/L phosphate buffer (pH 7.4) (all purchased from Sigma-Aldrich, Gillingham, U.K). Reactions were started by addition of the cofactors following 10 min preincubation of microsomes with test compound and were terminated at −1, 0, 5, 10, 15, and 30 min with three volumes of ice-cold methanol containing internal standard. Samples were centrifuged at 2800g for 30 min at 4 °C and the supernatants analyzed.
Control incubations were prepared as above with omission of cofactors. Compound measurements were […]
separation with a 3 min gradient of 0.1% formic acid in methanol on a Kinetex C18, 50 × 2.1 mm 2.6 μm UPLC column (Phenomenex, Macclesfield, UK). […]

human BCL6 BTB domain [4] = target: T1, human BCL6 BTB domain (Homo sapiens, UniProt P41182); details: for BCL6 TR-FRET pIC50 mean: mean of replicates
human BCL6 BTB domain [5] = target: T1, human BCL6 BTB domain; assay: biochemical
[6] = OCI-Ly1, read-out: MSD degrader assay [OCI-LY1] Dmax individual replicates, single replicate values
[7] = OCI-Ly1, read-out: MSD degrader assay [OCI-Ly1] Dmax, mean maximal degradation of BCL6, OCI-Ly1 cells, 2 h
[8] = read-out: MSD degrader assay [OCI-LY1] DC50 individual replicates, single replicate values
[9] = read-out: MSD degrader assay [OCI-Ly1] DC50, geometric mean, OCI-Ly1 cells, 2 h incubation
[10] = read-out: BCL6 TR-FRET IC50, geometric mean, BCOR-AF633 peptide, 2 h incubation
[11] = read-out: BCL6 TR-FRET IC50 individual replicates, single replicate values
[12] = BCL6 TR-FRET IC50 individual replicates, single replicate values

Row | Compound | chromatographic logD [1] | solubility kinetic at 20 h (NMR solubility assay) [µM] | Dmax [2, 6] [%] | Dmax [2, 7] [%] | degradation of BCL6 (in words) [2] | MSD degrader assay [OCI-Ly1] Dmax ([2]; OCI-Ly1 cells, 2 h) [%] | DC50 [2, 8] | DC50 [2, 9] [nM] | microsomal CLint at 0.5 h, 1 µM [3] [µL/min/mg] | BCL6 TR-FRET pIC50 mean (human BCL6 BTB domain [4]) | IC50 (human BCL6 BTB domain [4]; [10]) [nM] | IC50 (human BCL6 BTB domain [4]; [11]) | IC50 (human BCL6 BTB domain [5]; BCL6 TR-FRET IC50, geometric mean, BCOR-AF633 peptide, 2 h incubation) [nM] | IC50 (human BCL6 BTB domain [5]; [12]) | IC50 (human BCL6 BTB domain [5]; BCL6 TR-FRET pIC50 mean, mean of replicates) [nM] | MSD degrader assay [OCI-LY1] pDC50 mean ([2]; mean of replicates) | MSD degrader assay [OCI-LY1] Dmax individual replicates ([2]; single replicate values) [%]
1 | Cn1c(=O)n(CCC(C)(C)O)c2cc(Nc3nc(N4CCC(F)(F)C(CO)C4)ncc3Cl)ccc21 (stereo not drawn) [compound 4, 5-((5-Chloro-2-(4,4-difluoro-3-(hydroxymethyl)piperidin-1-yl)pyrimidin-4-yl)amino)-3-(3-hydroxy-3-methylbutyl)-1-methyl-1,3-dihydro-2H-benzo[d]imidazol-2-one] | 2.5 | 294 (≈ 150 µg/mL) | – | – | – | – | – | – | – | – | – | – | – | – | – | – | –
2 | Cn1c(=O)c2c(c3cc(Nc4nc(N5CCC(F)(F)[C@H](O)C5)ncc4Cl)ccc31)N[C@@H](C1CC1)C(F)(F)CO2 (single isomer, unassigned) [8b] | 3 | 13 (≈ 7.4 µg/mL) | < 30 | < 30 | nondegrading isomer | > 30 | > 2000 nM | > 2000 | 22 | 8.3342 | 4.6 | 4.8 nM and 4.7 nM and 4.4 nM | – | – | – | – | –
3 | Cn1c(=O)c2c(c3cc(Nc4nc(N5CCC[C@H](O)C5)ncc4Cl)ccc31)N[C@@H](C1CC1)C(F)(F)CO2 [14b, (S)-10-((5-chloro-2-((S)-3-hydroxypiperidin-1-yl)pyrimidin-4-yl)amino)-2-cyclopropyl-3,3-difluoro-7-methyl-1,2,3,4-tetrahydro-[1,4]oxazepino[2,3-c]quinolin-6(7H)-one] | – | 23 (≈ 12.3 µg/mL) | < 30 | < 30 | none was seen | > 30 | > 2000 nM | > 2000 | 139 | – | 2.5 | 2.6 nM | 3 | 3.1 nM (2×) and 3.2 nM and 2.9 nM | 2.98 | – | –
4 | Cn1c(=O)n(CCC(C)(C)O)c2cc(Nc3nc(N4CCC(F)(F)C(O)C4)ncc3Cl)ccc21 (stereo not drawn) [compound 3, 5-((5-Chloro-2-(4,4-difluoro-3-hydroxypiperidin-1-yl)pyrimidin-4-yl)amino)-3-(3-hydroxy-3-methylbutyl)-1-methyl-1,3-dihydro-2H-benzo[d]imidazol-2-one] | 2.3 | 11 (≈ 5.47 µg/mL) | 81 | 77.5 | – | 78 | 246 nM and 310 nM | 276 | 35 | 6.6241 | 238 | 227 nM and 247 nM and 239 nM | – | – | – | 6.5593 | 74.1
5 | C[C@H]1C[C@H](O)CN(c2ncc(Cl)c(Nc3ccc4c(c3)c3c(c(=O)n4C)OCC(F)(F)[C@H](C4CC4)N3)n2)C1 [13b, (S)-10-((5-Chloro-2-((3S,5S)-3-hydroxy-5-methylpiperidin-1-yl)pyrimidin-4-yl)amino)-2-cyclopropyl-3,3-difluoro-7-methyl-1,2,3,4-tetrahydro-[1,4]oxazepino[2,3-c]quinolin-6(7H)-one] | 3.1 | – | < 30 | < 30 | nondegraders of BCL6 | > 30 | > 2000 nM | > 2000 | 446 | 8.2236 | 6 | – | – | 4.9 nM and 6.4 nM and 6.8 nM | – | – | –
6 | C[C@@H]1C[C@@H](O)CN(c2ncc(Cl)c(Nc3ccc4c(c3)c3c(c(=O)n4C)OCC(F)(F)[C@H](C4CC4)N3)n2)C1 [13a, (S)-10-((5-Chloro-2-((3R,5R)-3-hydroxy-5-methylpiperidin-1-yl)pyrimidin-4-yl)amino)-2-cyclopropyl-3,3-difluoro-7-methyl-1,2,3,4-tetrahydro-[1,4]oxazepino[2,3-c]quinolin-6(7H)-one] | 3 | – | < 30 | < 30 | nondegraders of BCL6 | > 30 | > 2000 nM | > 2000 | 78 | 8.0053 | 9.9 | 9.9 nM | – | 11.4 nM and 8.6 nM | – | – | –
